Results from patent US20260167641A1, “CRYSTAL FORM OF IMIDAZOPYRAZINE DERIVATIVE, PREPARATION METHOD THEREFOR AND USE THEREOF” (TRANSTHERA SCIENCES (NANJING), INC., priority 2022, published 2026).
In brackets after ≈: the same amount, converted by molar mass.

Legend:
[1] = Solubility test in pH 4.5 acetate buffer solution; assay type: physicochemical; conditions: for Solubility: saturated solution, 37° C., 200 rpm, 24 h
Method: Appropriate amounts of crystal forms I, II, III, and the compound of formula (I) were weighed and placed into 15 mL centrifuge tubes separately. A pH 4.5 acetate buffer was added to each tube to prepare saturated solutions. The tubes were sealed and placed in a water bath thermostatic oscillator to shake at 37° C. and a rotation speed of 200 rpm for 24 h. After centrifugation, the supernatants were collected and diluted to the corresponding multiples. The concentrations were measured. The detection was conducted according to the 2020 edition of the Chinese Pharmacopoeia.

[2] = Pharmacokinetic evaluation test in rats; assay type: in vivo, SD rats; conditions: p.o. 100 mg/kg; for Pharmacokinetic properties: SD rats; for AUCinf—obs / AUClast / Cmax / tz1/2 (terminal half-life) / Tmax: male SD rats, 100 mg/kg; for AUCinf—obs / AUClast / Cmax / tz1/2 (terminal half-life): mean, n = 3; for Tmax: n = 3, Tmax in median
Method: • Animals: male SD rats • Animal administration and sample collection: Crystal forms I, II, and III were each dissolved in a mixture of 20% PEG400+80% (20% Captisol in 0.5% MC) to prepare administration formulation suspensions. The administration formulations were intragastrically administered to the SD rats at a dose of 100 mg/kg. Blood samples were collected at time points of 15 min, 30 min, 1 h, 2 h, 4 h, 6 h, 8 h, 24 h, 48 h, 72 h, and […] after administration.
One day before administration, the animals underwent jugular vein catheterization. After administration, about 300 μL of blood samples were collected via the jugular vein and then placed into anticoagulation tubes containing EDTA-K2. The blood samples were centrifuged at 4° C. and 8000 rpm for 10 min to yield plasma samples, which were prepared within 30 min after blood sample collection. The plasma samples were stored in a refrigerator at −80° C. before tests.
The samples to be tested were taken out from the refrigerator at −80° C., naturally thawed at room temperature, and then vortexed for 5 min. 20 μL of each of the 20-fold diluted plasma samples was precisely pipetted into a 1.5 mL centrifuge tube, and 300 μL of an internal standard working solution at a concentration of 10 ng/mL was added. The mixture was uniformly mixed, vortexed for 5 min, and then centrifuged at 12000 rpm for 5 mun.
50 μL of the supernatant was precisely pipetted into a 96-well plate to which water was added at 150 μL/well in advance, uniformly mixed by vortexing for 5 min, and analyzed by LC-MS/MS.
The sample to be tested was taken out from the refrigerator at −80° C., naturally thawed at room temperature, and then vortexed for 5 min. 2 μL of the plasma sample was precisely pipetted and then added, together with 28 μL of blank plasma, to a 1.5 mL centrifuge tube, and 450 μL of an internal standard working solution (a solution of tolbutamide in acetonitrile) at a concentration of 100 ng/mL was added. The mixture was uniformly mixed, vortexed for 5 min, and then centrifuged at 12000 rpm for 5 min. 50 μL of the supernatant was precisely pipetted into a 96-well plate to which water was added at 150 μL/well in advance, uniformly mixed by vortexing for 5 min, and analyzed by LC-MS/MS.
The test compound concentrations were output by Analyst 1.7.1 of AB Sciex. Parameters such as mean, standard deviation, and coefficient of variation were calculated by Microsoft Excel. PK parameters were calculated by Pharsight Phoenix 8.2 software NCA (Tmax was in median).

[3] = Stability evaluation under influencing factors; assay type: physicochemical; conditions: for Purity decrease: 30 days vs day 0
Method: Appropriate amounts of crystal forms I, II. III, and the compound of formula (I) were taken and exposed to conditions of 60° C., RH (relative humidity) 92.5%, RH (relative humidity) 75%, and light, respectively. The samples were collected on day 30, and the purity of the samples and changes in XRPD were examined according to the 2020 edition of the Chinese Pharmacopoeia.

Solubility compared to the amorphous form [1]	Solubility [1]	Pharmacokinetic properties [2]	AUCinf—obs [2]	AUClast [2]	Cmax [2]	tz1/2 (terminal half-life) [2]	Tmax [2]	Purity % ([3]; 0 day)	Crystal form identification (XRPD) ([3]; 60° C., 30 days)	Purity % ([3]; 60° C., 30 days)	Crystal form identification (XRPD) ([3]; Light exposure, 30 days)	Purity % ([3]; Light exposure, 30 days)	Crystal form identification (XRPD) ([3]; RH 75%, 30 days)	Purity % ([3]; RH 75%, 30 days)	Crystal form identification (XRPD) ([3]; RH 92.5%, 30 days)	Purity % ([3]; RH 92.5%, 30 days)	Purity decrease ([3]; light exposure)	SMILES	also measured
higher solubility	273 µg/mL (≈ 430 µM)	very good pharmacokinetic properties	1218.508 µg·h/mL	1208.628 µg·h/mL	96.267 µg/mL	10.4 h	1.00 h	98.6%	Consistent with day 0	98.7%	Consistent with day 0	98.1%	Consistent with day 0	98.7%	Consistent with day 0	98.7%	0.5%	Nc1nccn2c(C34CCC(NC(=O)CN5CCOCC5)(CC3)C4)nc(-c3ccc(C(=O)Nc4cc(C(F)(F)F)ccn4)cc3)c12 (single isomer, unassigned) [Crystal form I, 4-(8-amino-3-(4-(2-morpholinoacetamido)bicyclo[2.2.1]heptan-1-yl)imidazo[1,5-a]pyrazin-1-yl)-N-(4-(trifluoromethyl)pyridin-2-yl)benzamide]	Change of crystal form (XRPD pattern) ([3]; all influencing factor conditions, 30 days): no changes in the crystal forms occurred; Stability compared to the amorphous form ([3]; influencing factors, 30 days): higher stability
higher solubility	98 µg/mL (≈ 154 µM)	very good pharmacokinetic properties	2488.128 µg·h/mL	2482.493 µg·h/mL	142.333 µg/mL	9.39 h	2.00 h	99.0%	Consistent with day 0	94.8%	Consistent with day 0	88.0%	Partially converted to amorphous	98.7%	Partially converted to amorphous	98.7%	11%	Nc1nccn2c(C34CCC(NC(=O)CN5CCOCC5)(CC3)C4)nc(-c3ccc(C(=O)Nc4cc(C(F)(F)F)ccn4)cc3)c12 (single isomer, unassigned) [Crystal form III, 4-(8-amino-3-(4-(2-morpholinoacetamido)bicyclo[2.2.1]heptan-1-yl)imidazo[1,5-a]pyrazin-1-yl)-N-(4-(trifluoromethyl)pyridin-2-yl)benzamide]	Purity decrease ([3]; high temperature of 60° C.): 4.2%
	65 µg/mL							99.7%	Consistent with day 0	99.5%	Consistent with day 0	88.2%	Consistent with day 0	99.7%	Consistent with day 0	99.7%	11.5%	Nc1nccn2c(C34CCC(NC(=O)CN5CCOCC5)(CC3)C4)nc(-c3ccc(C(=O)Nc4cc(C(F)(F)F)ccn4)cc3)c12 [Compound of formula (I), 4-(8-amino-3-(4-(2-morpholinoacetamido)bicyclo[2.2.1]heptan-1-yl)imidazo[1,5-a]pyrazin-1-yl)-N-(4-(trifluoromethyl)pyridin-2-yl)benzamide]	
